Assay results as given in PubChem BioAssay AID1919005 (Molecular Pharmacology Branch, DTP, NCI, 2023).
Values belong to the molecule of their own block, whether it stands above or below them.

System: 855422-203-R-J1-PDC complex spheroid growth
Experiment: Anticancer human tumor 855422-203-R-J1-PDC patient-derived bladder carcinoma cell line growth inhibition [AhR]
Details: for IC50: curve of first compound; for viability, T/C: stronger effect = lower value
Summary of the method: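 Agents were dosed in half-log steps down from roughly clinical Cmax, or from 10 microM where Cmax was unknown, alone and with AhR antagonists. Read-out: percent test/control growth of tumor spheroids containing HUVEC and MSC stromal cells.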

[1] = second compound 0.1 µM, first compound 0.0316 µM
[2] = second compound 0.1 µM, first compound 0.1 µM
[3] = second compound 0.1 µM, first compound 0.316 µM
[4] = second compound 0.1 µM, first compound 1 µM
[5] = second compound 0.1 µM, first compound 3.16 µM
[6] = second compound 0.1 µM, first compound 10 µM
[7] = second compound 0.316 µM, first compound 0.0316 µM
[8] = second compound 0.316 µM, first compound 0.1 µM
[9] = second compound 0.316 µM, first compound 0.316 µM
[10] = second compound 0.316 µM, first compound 1 µM
[11] = second compound 0.316 µM, first compound 3.16 µM
[12] = second compound 0.316 µM, first compound 10 µM
[13] = second compound 1 µM, first compound 0.0316 µM
[14] = second compound 1 µM, first compound 0.1 µM
[15] = second compound 1 µM, first compound 0.316 µM
[16] = second compound 1 µM, first compound 1 µM
[17] = second compound 1 µM, first compound 3.16 µM
[18] = second compound 1 µM, first compound 10 µM
[19] = second compound 3.16 µM, first compound 0.0316 µM
[20] = second compound 3.16 µM, first compound 0.1 µM
[21] = second compound 3.16 µM, first compound 0.316 µM
[22] = second compound 3.16 µM, first compound 1 µM
[23] = second compound 3.16 µM, first compound 3.16 µM
[24] = second compound 3.16 µM, first compound 10 µM
[25] = second compound 10 µM, first compound 0.0316 µM
[26] = second compound 10 µM, first compound 0.1 µM
[27] = second compound 10 µM, first compound 0.316 µM
[28] = second compound 10 µM, first compound 1 µM
[29] = second compound 10 µM, first compound 3.16 µM
[30] = second compound 10 µM, first compound 10 µM
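Note: spheroids exposed to agents for seven days before readout.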
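Throughout, for viability, T/C: percent of DMSO vehicle control luminescence viability.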

SMILES: COc1cc(Nc2ncc3c(n2)-c2ccc(Cl)cc2C(c2c(F)cccc2OC)=NC3)ccc1C(=O)O + CC(CO)NC(=O)c1cc(-c2ccc(Cl)cc2)nn(-c2cnn(C)c2)c1=O
IC50 (second compound 0.1 µM): > 10 µM
IC50 (second compound 0.316 µM): 10 µM
IC50 (second compound 1 µM): > 10 µM
IC50 (second compound 3.16 µM): > 10 µM
IC50 (second compound 10 µM): > 10 µM
viability, T/C [1]: 97%
viability, T/C [2]: 93.6%
viability, T/C [3]: 66%
viability, T/C [4]: 57.6%
viability, T/C [5]: 52.2%
viability, T/C [6]: 46.1%
viability, T/C [7]: 87.1%
viability, T/C [8]: 107%
viability, T/C [9]: 66.2%
viability, T/C [10]: 55.2%
viability, T/C [11]: 48%
viability, T/C [12]: 48.1%
viability, T/C [13]: 93.5%
viability, T/C [14]: 104%
viability, T/C [15]: 66.2%
viability, T/C [16]: 61%
viability, T/C [17]: 48.1%
viability, T/C [18]: 45.9%
viability, T/C [19]: 88.9%
viability, T/C [20]: 90.6%
viability, T/C [21]: 60.2%
viability, T/C [22]: 58.5%
viability, T/C [23]: 46.4%
viability, T/C [24]: 47.2%
viability, T/C [25]: 94.7%
viability, T/C [26]: 79.9%
viability, T/C [27]: 60.8%
viability, T/C [28]: 50.6%
viability, T/C [29]: 55.5%
viability, T/C [30]: 46.3%

SMILES: Cn1ncnc1C1c2n[nH]c(=O)c3cc(F)cc(c23)NC1c1ccc(F)cc1 (stereo not given) + CC(CO)NC(=O)c1cc(-c2ccc(Cl)cc2)nn(-c2cnn(C)c2)c1=O
IC50 (second compound 0.1 µM): > 0.1 µM
IC50 (second compound 0.316 µM): > 0.1 µM
IC50 (second compound 1 µM): > 0.1 µM
IC50 (second compound 3.16 µM): > 0.1 µM
IC50 (second compound 10 µM): > 0.1 µM
viability, T/C (second compound 0.1 µM, first compound 0.000316 µM): 93.4%
viability, T/C (second compound 0.1 µM, first compound 0.001 µM): 96.2%
viability, T/C (second compound 0.1 µM, first compound 0.00316 µM): 99.3%
viability, T/C (second compound 0.1 µM, first compound 0.01 µM): 92.4%
viability, T/C [1]: 105%
viability, T/C [2]: 84.9%
viability, T/C (second compound 0.316 µM, first compound 0.000316 µM): 96.4%
viability, T/C (second compound 0.316 µM, first compound 0.001 µM): 104%
viability, T/C (second compound 0.316 µM, first compound 0.00316 µM): 98.6%
viability, T/C (second compound 0.316 µM, first compound 0.01 µM): 107%
viability, T/C [7]: 100%
viability, T/C [8]: 89.3%
viability, T/C (second compound 1 µM, first compound 0.000316 µM): 109%
viability, T/C (second compound 1 µM, first compound 0.001 µM): 105%
viability, T/C (second compound 1 µM, first compound 0.00316 µM): 96.2%
viability, T/C (second compound 1 µM, first compound 0.01 µM): 109%
viability, T/C [13]: 99%
viability, T/C [14]: 107%
viability, T/C (second compound 3.16 µM, first compound 0.000316 µM): 101%
viability, T/C (second compound 3.16 µM, first compound 0.001 µM): 107%
viability, T/C (second compound 3.16 µM, first compound 0.00316 µM): 102%
viability, T/C (second compound 3.16 µM, first compound 0.01 µM): 103%
viability, T/C [19]: 105%
viability, T/C [20]: 110%
viability, T/C (second compound 10 µM, first compound 0.000316 µM): 105%
viability, T/C (second compound 10 µM, first compound 0.001 µM): 102%
viability, T/C (second compound 10 µM, first compound 0.00316 µM): 95.4%
viability, T/C (second compound 10 µM, first compound 0.01 µM): 103%
viability, T/C [25]: 106%
viability, T/C [26]: 94%

SMILES: NS(=O)(=O)OCC1CC(n2ccc3c(NC4CCc5ccccc54)ncnc32)CC1O (stereo not given) + CC(CO)NC(=O)c1cc(-c2ccc(Cl)cc2)nn(-c2cnn(C)c2)c1=O
IC50 (second compound 0.1 µM): 0.855 µM
IC50 (second compound 0.316 µM): 0.795 µM
IC50 (second compound 1 µM): 0.699 µM
IC50 (second compound 3.16 µM): 0.524 µM
IC50 (second compound 10 µM): 0.47 µM
viability, T/C [1]: 99.8%
viability, T/C [2]: 117%
viability, T/C [3]: 93%
viability, T/C [4]: 43.2%
viability, T/C [5]: 15.3%
viability, T/C [6]: 10.1%
viability, T/C [7]: 90.5%
viability, T/C [8]: 109%
viability, T/C [9]: 84.4%
viability, T/C [10]: 41.5%
viability, T/C [11]: 12.4%
viability, T/C [12]: 7.98%
viability, T/C [13]: 104%
viability, T/C [14]: 102%
viability, T/C [15]: 85.4%
viability, T/C [16]: 34.1%
viability, T/C [17]: 11.4%
viability, T/C [18]: 9.77%
viability, T/C [19]: 87%
viability, T/C [20]: 97.9%
viability, T/C [21]: 61.9%
viability, T/C [22]: 31.9%
viability, T/C [23]: 9.85%
viability, T/C [24]: 8.37%
viability, T/C [25]: 87.6%
viability, T/C [26]: 82.8%
viability, T/C [27]: 53.5%
viability, T/C [28]: 38.6%
viability, T/C [29]: 11.7%
viability, T/C [30]: 8.14%

Continued, in another order:

IC50 (second compound 0.1 µM): 6.14 µM
IC50 (second compound 0.316 µM): 6.19 µM
IC50 (second compound 1 µM): 6.3 µM
IC50 (second compound 3.16 µM): 6.25 µM
IC50 (second compound 10 µM): 5.94 µM
SMILES: CC1(C)CCC(CN2CCN(c3ccc(C(=O)NS(=O)(=O)c4ccc(NCC5CCOCC5)c([N+](=O)[O-])c4)c(Oc4cnc5[nH]ccc5c4)c3)CC2)=C(c2ccc(Cl)cc2)C1 + CC(CO)NC(=O)c1cc(-c2ccc(Cl)cc2)nn(-c2cnn(C)c2)c1=O
viability, T/C [1]: 104%
viability, T/C [2]: 100%
viability, T/C [3]: 110%
viability, T/C [4]: 97.8%
viability, T/C [5]: 102%
viability, T/C [6]: 11.8%
viability, T/C [7]: 97.3%
viability, T/C [8]: 96.9%
viability, T/C [9]: 109%
viability, T/C [10]: 100%
viability, T/C [11]: 109%
viability, T/C [12]: 12.3%
viability, T/C [13]: 101%
viability, T/C [14]: 103%
viability, T/C [15]: 103%
viability, T/C [16]: 109%
viability, T/C [17]: 106%
viability, T/C [18]: 13.2%
viability, T/C [19]: 104%
viability, T/C [20]: 111%
viability, T/C [21]: 108%
viability, T/C [22]: 103%
viability, T/C [23]: 105%
viability, T/C [24]: 12.3%
viability, T/C [25]: 94.8%
viability, T/C [26]: 104%
viability, T/C [27]: 88.3%
viability, T/C [28]: 101%
viability, T/C [29]: 93.9%
viability, T/C [30]: 13.7%

IC50 (second compound 0.1 µM): > 3 µM
IC50 (second compound 0.316 µM): > 3 µM
IC50 (second compound 1 µM): > 3 µM
IC50 (second compound 3.16 µM): > 3 µM
IC50 (second compound 10 µM): > 3 µM
SMILES: CCN(c1cc(-c2ccc(CN3CCOCC3)cc2)cc(C(=O)NCc2c(C)cc(C)[nH]c2=O)c1C)C1CCOCC1 + CC(CO)NC(=O)c1cc(-c2ccc(Cl)cc2)nn(-c2cnn(C)c2)c1=O
viability, T/C (second compound 0.1 µM, first compound 0.00949 µM): 94.1%
viability, T/C (second compound 0.1 µM, first compound 0.03 µM): 102%
viability, T/C (second compound 0.1 µM, first compound 0.0949 µM): 94.3%
viability, T/C (second compound 0.1 µM, first compound 0.3 µM): 95.7%
viability, T/C (second compound 0.1 µM, first compound 0.949 µM): 86.2%
viability, T/C (second compound 0.1 µM, first compound 3 µM): 88.5%
viability, T/C (second compound 0.316 µM, first compound 0.00949 µM): 112%
viability, T/C (second compound 0.316 µM, first compound 0.03 µM): 109%
viability, T/C (second compound 0.316 µM, first compound 0.0949 µM): 100%
viability, T/C (second compound 0.316 µM, first compound 0.3 µM): 95.5%
viability, T/C (second compound 0.316 µM, first compound 0.949 µM): 92.1%
viability, T/C (second compound 0.316 µM, first compound 3 µM): 92.6%
viability, T/C (second compound 1 µM, first compound 0.00949 µM): 100%
viability, T/C (second compound 1 µM, first compound 0.03 µM): 105%
viability, T/C (second compound 1 µM, first compound 0.0949 µM): 114%
viability, T/C (second compound 1 µM, first compound 0.3 µM): 94.5%
viability, T/C (second compound 1 µM, first compound 0.949 µM): 91.9%
viability, T/C (second compound 1 µM, first compound 3 µM): 88.8%
viability, T/C (second compound 3.16 µM, first compound 0.00949 µM): 98.6%
viability, T/C (second compound 3.16 µM, first compound 0.03 µM): 95.2%
viability, T/C (second compound 3.16 µM, first compound 0.0949 µM): 103%
viability, T/C (second compound 3.16 µM, first compound 0.3 µM): 94.1%
viability, T/C (second compound 3.16 µM, first compound 0.949 µM): 86%
viability, T/C (second compound 3.16 µM, first compound 3 µM): 77.4%
viability, T/C (second compound 10 µM, first compound 0.00949 µM): 96.5%
viability, T/C (second compound 10 µM, first compound 0.03 µM): 102%
viability, T/C (second compound 10 µM, first compound 0.0949 µM): 83.5%
viability, T/C (second compound 10 µM, first compound 0.3 µM): 92.8%
viability, T/C (second compound 10 µM, first compound 0.949 µM): 103%
viability, T/C (second compound 10 µM, first compound 3 µM): 80.7%
